“Also recorded” adds a separate entry of the source.
What was measured:
[1] = tested on: ear cells derived from a newborn cloned calf (C188/Firstdown-FB000); assay: Nuclear transfer with lovastatin-treated bovine ear cells: in vitro embryo development; assay type: cell-based; details: for Emb. Devel. (% Blastocyst): NT embryos from ear cells treated with lovastatin for 24 hours, day 7 of culture
Method: Mycoplasma free totipotent cells used in the NT procedure, were prepared by cutting out a group of cells from the culture dish using a glass needle. The cells were then incubated in a TL HEPES solution containing from 1 to 3 mg/ml pronase E at approximately 32° C. for 15-60 minutes, the amount of time which was needed in this example to disaggregate the cells. Once the cells were in a single cell suspension they were used for NT within a 2-3 hour period.
Oocytes aspirated from ovaries were matured overnight (16 hours) in maturation medium. Medium 199 (Biowhittaker, Cat #12-119F) supplemented with luteinizing hormone 10 IU/ml (LH; Sigma, Cat #L9773), […] (Sigma, Cat #E8875) and 10% FCS or estrus cow serum, was used. Within 16-17 hours of maturation, the cumulus layer expanded and the first polar bodies were extruded.
In the first NT procedure, young oocytes (16-17 hours in maturation medium) were stripped of their cumulus cell layers and nuclear material stained with Hoechst 33342 5 mg/ml (Sigma, Cat #2261) in TL HEPES solution supplemented with cytochalasin B (7 μg/ml, Sigma, Cat #C6762) for 15 min. Oocytes were then enucleated in TL HEPES solution under mineral oil. A single cell of optimal size (12 to 15 μm) was then selected from a cell suspension and injected into the perivitelline space of the enucleated oocyte. The cell and oocyte membranes were then induced to fuse by electrofusion in a 500 μm chamber by application of an electrical pulse of 90V for 15 μs.
Cybrid activation was induced by a 4 min exposure to 5 μM calcium ionophore A23187 (Sigma Cat. #C-7522) or ionomycin Ca-salt in HECM (hamster embryo culture medium) containing 1 mg/ml BSA followed by a 1:1000 dilution in HECM containing 30 mg/ml BSA for 5 min. For HECM medium, See, e.g., Seshagiri & Barister, 1989, “Phosphate is required for inhibition of glucose of development of hamster eight-cell embryos in vitro,” Biol. Reprod. 40: 599-606. […]

[2] = tested on: recipients; assay: Transfer of NT blastocysts from lovastatin-treated bovine cells into recipients: pregnancy outcome; assay type: in vivo
Method: After blastomere-oocyte fusion, the cybrids from second generation NT were cultured in CR2 media supplemented with BSA (3 mg/ml) under humidified air with 5% CO2 at 39° C. On the third day of culture, developing embryos were evaluated and cultured further until day seven in CR2 media containing 10% FCS. Morphologically good to fair quality embryos were non-surgically transferred into recipient females.
Similar results were obtained using statin-treated bovine cells in nuclear transfer procedures. […] One or two blastocysts were non-surgically transferred into 5 recipients of which two became pregnant (Table 3).

[3] = tested on: estrus synchronized ewes; assay: Transfer of NT blastocysts from lovastatin-treated ovine cells into recipient ewes: pregnancy outcome
[4] = tested on: ear cells (SA01-FB) used as nuclear donors; assay: Nuclear transfer with lovastatin-treated ovine ear cells: in vitro embryo development; assay type: cell-based, sheep; details: NT embryos from SA01-FB ear cells treated with 5 μM lovastatin for 24 hours; per day of NT
Method: Oocytes were aspirated from sheep ovaries obtained from an abattoir and recovered in TL HEPES medium (Biowhittaker 04-616F) containing 10 mg/ml Heparin (Sigma H-3393) and 4 mg/ml BSA (Sigma A-6003). Aspirations were performed using 20 GA needles with the vacuum set at 60 mm Hg.
Two maturation media were used to produce nuclear transfer pregnancies. Maturation Medium 1: TC199 (Gibco 11150-059), 2 mM Glutamine (Sigma G-5763), 10% FBS (Hyclone A-111D), 5 mg/ml ovine FSH (Sigma L-8174), 5 mg/ml ovine LH (Sigma L-5269), 1 mg/ml Estradiol (Sigma E-2257), 0.3 mM Na-pyruvate (Sigma P-4562), and […] (Sigma M-9768). Maturation Medium 3: TC199 (Gibco 11150-059), 10% FBS (Hyclone A-111D), 10 mg/ml ovine FSH (Sigma L-8174), 10 mg/ml ovine LH (Sigma L-5269), 1 mg/ml Estradiol (Sigma E-2257) and […] (Sigma M-9768).
Typically, oocytes were stripped of cumulus cells after 17 hours in maturation medium by vortexing in 0.5 ml of TL-HEPES. The chromatin was stained with Hoechst 33342 (5 mg/ml, Sigma) in TL-HEPES solution for 15 minutes. Oocytes were then enucleated in TL-HEPES with or without calcium.
All nuclear transfers were performed in TL HEPES containing calcium regardless of what enucleation medium was used. […]

CC[C@H](C)C(=O)O[C@H]1C[C@@H](C)C=C2C=C[C@H](C)[C@H](CC[C@@H]3C[C@@H](O)CC(=O)O3)[C@H]21 [lovastatin]
Emb. Devel. (% Blastocyst) [1]: 19% | Emb. Devel. (% Blastocyst) ([1]; listed as LOVASTATIN): 19% | Number of blastocysts produced by day 7 of culture ([1]; lovastatin treated cells used in NT on two different days): 6 | Number of recipients that became pregnant ([2]; of 5 recipients given one or two blastocysts): two | Outcome of pregnancies ([2]; two pregnancies from lovastatin treated bovine cells): One pregnancy aborted by day 32; also recorded: produced a live calf | Status (of recipient after embryo transfer) ([3]; NT blastocysts from lovastatin treated SA01-FB cells transferred into ewe, listed as L0): open and Lambed | Farrowed/Aborted ([3]; Pregnancy Two, SA01-FB00 lovastatin treated, 4 Day 7 blastocysts transferred, recipient #56): farrowed | # of Bl. (blastocysts, day 7) [4]: one and four
